Measured values reported in patent publication US20250108088A1, “REGENERATIVE PEPTIDES AND METHODS FOR USE THEREOF” (priority 2023, published 2025).
“Also recorded” adds a separate entry of the source.

Key:
[1] = system: Staphylococcus aureus, Streptococcus pneumoniae, Klebsiella pneumoniae, Pseudomonas aeruginosa, Acinetobacter baumannii; experiment: Antimicrobial assays, growth of bacterial strains; assay type: cell-based
Protocol: Infection is another perturbation that causes fibrosis and may delay or inhibit wound healing. To determine if the peptides of the instant disclosure affect the growth of bacteria, and thus may be appropriate as antimicrobial peptides to be used in anti-fibrotic treatments, growth of the following bacterial strains was tested with the exemplary peptides: Staphylococcus aureus: USA300, ST80, JE2, and MRSA col; Streptococcus pneumoniae: DCC1335 and D39; Klebsiella pneumoniae; Pseudomonas aeruginosa; and Acinetobacter baumannii. […] Thus, in some embodiments, the peptides of the instant disclosure may bacterial growth, by a least 20%, at least 30%, at least 40%, at least 50%, at least 60%, at least 70%, or at least 80% relative to the control.
To determine which peptides may be used to inhibit the growth of bacteria in tissue, the minimum inhibitory and bactericidal concentrations of exemplary peptides against both Gram-positive and Gram-negative bacteria were assessed. […]
The antimicrobial effects of the exemplary peptides were assessed in the following bacterial strains: Staphylococcus aureus: USA300, ST80, JE2, and MRSA col; Streptococcus pneumoniae: DCC1335 and D39; Klebsiella pneumoniae ATCC 10031; Pseudomonas aeruginosa ATCC 27853; and Acinetobacter baumannii ATCC 196062. […]

[2] = system: interleukin-8 (IL-8) production in human fibroblasts; experiment: Fibroblast inflammation assay (LPS-induced IL-8, ELISA); assay type: cell-based; details: N = 3, 5 μg/mL LPS, 24 hours
Protocol: Inflammation in fibroblasts leads to the production of the chemokine interleukin-8 (IL-8), which stimulates fibroblast to myofibroblast transition (MFT) thereby enhancing scar formation. To determine if the peptides of the instant disclosure affect fibroblast response to inflammation and fibroblast IL-8 production, the following assays were performed.
Human fibroblasts were grown as described above. HNDFs were plated in 96 well plates at a concentration of 1×10^4 cells/well and allowed to incubate overnight. The next day cells were dosed with 5 μg/mL of LPS with and without the peptides. The negative control contained only media and vehicle, while the positive control was dosed with lipopolysaccharides (LPS) and dexamethasone (50 μg/ml). After 24 hours, the media was removed to measure IL6 and IL8 cytokine levels using ELISA. A standard curve was plotted in excel. All data were blank subtracted and then fit onto the curve to calculate cytokine concentrations.

[3] = system: Acinetobacter baumannii ATCC 196062; experiment: Minimum bactericidal concentration (MBC); assay type: cell-based; details: agar plates; FIG. 9
Protocol: (§1) The minimum bactericidal concentration (MBC) test determines the lowest concentration at which an antimicrobial agent will kill a particular microorganism. The MBC is determined using a series of steps, undertaken after a Minimum Inhibitory Concentration (MIC) test has been completed. o determine the MBC, the dilution representing the MIC and at least two of the more concentrated test product dilutions are plated and enumerated to determine viable CFU/ml. The […] of the peptides was determined as the lowest concentration in which colony forming units (CFU) values were <5 colonies/10 μl of culture.

[4] = system: Staphylococcus aureus ST80; experiment: Minimum bactericidal concentration (MBC); assay type: cell-based; details: agar plates; FIG. 9
Protocol: as §1

[5] = system: Klebsiella pneumoniae ATCC 10031; experiment: Minimum bactericidal concentration (MBC); assay type: cell-based; details: agar plates; FIG. 9
Protocol: as §1

[6] = system: Staphylococcus aureus strains, including the MRSA col strain; experiment: Broth microdilution method (MIC50/MIC90); assay type: cell-based
Protocol: (§2) Cell culture: Cultures of each bacterial strain were prepared by inoculating on Muller Hinton Agar (MHA) medium. After overnight incubation at 37° C., the density of the bacterial cells was compared to the McFarland turbidity standard (0.5).
(§3) Ten-fold serial dilution of the peptide along with controls were prepared in Mueller Hinton Broth (MHB) media in a total volume of 50 μl in 96 well plates. Additionally, 50 μl of the diluted standard inoculum (1:150 in MHB media) were added to each of the well plates. The plates were read at OD600 nm. MIC50 and MIC90 curves were calculated from the plate readout. Each sample was run in duplicate.

[7] = system: Acinetobacter baumannii ATCC 196062; experiment: Broth microdilution method (MIC50/MIC90); assay type: cell-based
Protocol: as §2, §3

[8] = system: Klebsiella pneumoniae ATCC 10031; experiment: Broth microdilution method (MIC50/MIC90); assay type: cell-based
Protocol: as §2, §3

[9] = system: Pseudomonas aeruginosa ATCC 27853; experiment: Broth microdilution method (MIC50/MIC90); assay type: cell-based
Protocol: as §2, §3

[10] = system: Acinetobacter baumannii ATCC 196062; experiment: Diffusion agar plate method, zone of inhibition; assay type: cell-based; details: 62.5 μg/ml to 1000 μg/ml; FIG. 5, FIG. 10
Protocol: as §2
(§4) Plates were swabbed with McFarland 0.5 inoculum of each test bacteria. […] serial dilutions of the peptides were prepared and 20 μl of compound were dropped onto the MHA. Antibiotic disc served as a positive control and vehicle alone served as the negative control. Plates were incubated for 16-18 hours and assessed for antibacterial activity. Zones of inhibition were measured for each TA dilution and compared with the controls.

[11] = system: Pseudomonas aeruginosa ATCC 27853; experiment: Diffusion agar plate method, zone of inhibition; assay type: cell-based; details: 62.5 μg/ml to 1000 μg/ml; FIG. 5
Protocol: as §2, §4

[12] = system: Staphylococcus aureus USA300 (NRS384), ST80, JE2, MRSA col; experiment: Diffusion agar plate method, zone of inhibition; assay type: cell-based; details: 62.5 μg/ml to 1000 μg/ml; FIG. 5
Protocol: as §2, §4

[13] = system: Normal human dermal fibroblasts (HNDF); experiment: Myofibroblast transition assay (MFT), aSMA immunofluorescence; assay type: cell-based; details: for Myofibroblast transition (MFT), aSMA/cell, % change relative to control / MFT, Representative value from experiments (% change relative to control): N = 3; for Myofibroblast transition (MFT), aSMA/cell, % change relative to control: TGF-Beta induced HNDF, control of no peptide; for MFT, Representative value from experiments (% change relative to control): most effective significant concentration of 10, 100, 1000 ng/ml
Excerpt: The myofibroblast transition (MFT) assay determines the effect of the peptide on inhibiting the transition of fibroblasts to myofibroblasts. The extracellular matrix produced by myofibroblasts may be produced in excess and may not be remodeled during tissue healing, leaving behind the fibrous connective tissue that forms a scar. Thus, the ability to regulate the degree of MFT may enable control of scarring. To determine if the peptides provided herein affect MFT, the following assay was performed.
Normal human dermal fibroblasts (HNDF) were cultured in high glucose Dulbecco's modified eagle medium (DMEM) supplemented with 10% fetal bovine serum (FBS) and 5 ml of 10,000 units of penicillin/streptomycin. Cells were cultured on 10 cm plates with media changes every 2 days. Cells were passaged in 0.25% Trypsin/EDTA after achieving 80% confluency.
To induce myofibroblast transition (MFT), normal human dermal fibroblasts (HNDFs) were split from 1-10 cm plates to 5-96 well plates. Cells were then allowed to grow the next day. The following day, cells were serum starved (1% FBS in DMEM) for 4 hours prior to adding 20 ng/ml of TGF-Beta to all wells of the plate. 1000 μM of Vactosertib (TEW-7197/EW-7197) was added to serve as a positive control and different concentrations of peptides were added to serve as the test articles. The cells were then exposed to the compounds for 5 more days before fixation.
The cells were fixed in paraformaldehyde (PFA) for 10-15 minutes, then washed 2× in PBS. Cells were blocked in 4% BSA for 30 minutes at 23° C. Cells were stained with the primary alpha-smooth muscle actin (aSMA) antibody (1:100) for 1 hour at 23° C. or left out at 4° C. overnight. Cells were rinsed 2× with BSA and then the secondary antibody mix was added: Alexa 488 (1:500) and DAPI (1:1000) for 30 min at 23° C. or 1 hr at 4° C. The plates were covered during staining, then rinsed 2× in BSA and stored in PBS.
Plates were imaged using the Celigo Imaging Cytometer by Nexcelcom. The ratio of fluorescent expression of alpha-smooth muscle actin (aSMA) and DAPI were quantified to determine the amount of aSMA/cell.
The change (normalized to the control) in MFT for each concentration is shown along with the p value for all experiments relative to the control of no peptide.

skin post-dermabrasion = experiment: Clinical study, erythema (Chromameter a* value) post-dermabrasion; assay type: in vivo, human; details: 4 hours and 12 hours after application
Protocol: To determine the effects of the peptides on skin redness, the peptides P2, P3, and the combination of P2+P3 were tested at different concentration levels and subject's skin redness (erythema) was measured post-dermabrasion and 2, 4, 8, 12, 24, 48 and 72 hours post-application. The subjects were 30 post-menopausal female subjects, aged 50-65 years or younger, if post-menopausal. Enrolled subjects were to have Fitzpatrick Skin Types II-V. At baseline (post-dermabrasion) and 2, 4, 8, 12, 24, 48 and 72 hours post-application, skin redness was measured on 4 skin sites using the Chromameter® (Konica Minolta, Ramsey NJ). In order to determine any changes in skin redness, the a* value was analyzed. The a* value measures redness/erythema in the skin. A decrease in the a* value corresponded to a whitening/improvement (less red) effect and an increase in the a*value represented a darkening/worsening (redder) effect

skin after dermabrasion [14] = experiment: Clinical study, Visioscan skin smoothness after dermabrasion; assay type: in vivo, human; details: 8, 24, 48 and 72 hours after dermabrasion; vehicle cream base
Protocol: (§5) To determine the effects of exemplary peptides p1-p9 on tissue healing, a clinical study was performed that assessed transepidermal water loss (TEWL) and skin smoothness after dermabrasion.
(§6) This exemplary vehicle cream has a pH of 5.0, no odor and is white in color.
After 8 hours (T8h) of first product application, the subjects returned to the Institute, acclimated for 15 minutes and new Vapometer® to measure TEWL and Visioscan® VC 20Plus to measure skin smoothness was performed. After 1 (T1d), 2 (T2d) and 3 (T3d) days the subjects returned to the Institute, acclimated for 15 minutes and new measurements were performed. At time-points T1d and T2d new product application was performed by the technician on each test site. A total of 49 study subjects were included in the study and a total of 41 completed the study. The study included post-menopausal female subjects, aged between 50 and 65 years old (mean age: 59 years old), presenting Fitzpatrick Skin Types II-V.
Skin texture images were performed using the Visioscan® VC 20Plus, which allows taking pictures of the skin through magnifying lenses. The images enable a view of the skin topography, texture, dryness, desquamation, blemishes, pores, and cuticles.

skin after dermabrasion [15] = experiment: Clinical study, transepidermal water loss (TEWL, Vapometer) after dermabrasion; assay type: in vivo, human; details: 8, 24, 48 hours, vehicle cream base
Protocol: as §5, §6
After 8 hours (T8h) of first product application, the subjects returned to the Institute, acclimated for 15 minutes and new Vapometer® to measure TEWL and Visioscan® VC 20Plus to measure skin smoothness was performed. After 1 (T1d), 2 (T2d) and 3 (T3d) days the subjects returned to the Institute, acclimated for 15 minutes and new measurements were performed. At time-points T1d and T2d new product application was performed by the technician on each test site. A total of 49 study subjects were included in the study and a total of 41 completed the study. […]
The TEWL measurements were performed by using the Vapometer® device through a measurement probe. The readings were taken by applying the probe to the test sites, by resting it against the skin.
The measurements principle is diffusion, which indicates the mass of water per cm^2 that is transported in a given period of time, that is, the reading indicates the degree of water evaporation on the skin surface based on the sensitivity of hygro-sensors. The scale used is g/h/m^2, in which greater values of reading indicate higher evaporation. […]

[16] = system: Streptococcus pneumoniae DCC1335; experiment: Diffusion agar plate method, zone of inhibition; assay type: cell-based; details: 62.5 μg/ml to 1000 μg/ml; FIG. 10
Protocol: as §2, §4

FAYCRSKGLRKRLRKFRNK [MBb32]
inhibition of bacterial growth among those peptides tested [1]: strongest effect | Fibroblast induced chemokine production (IL-8) induced by LPS (% change relative to control) ([2]; 100 ug/ml peptide): 4% (p = .054) | Fibroblast induced chemokine production (IL-8) induced by LPS (% change relative to control) ([2]; 1000 ug/ml peptide): 29% (p = 0.035) | minimum bactericidal concentration (MBC), bactericidal effect [3]: bactericidal effect | minimum bactericidal concentration (MBC), bactericidal effect [4]: bactericidal effect | minimum bactericidal concentration (MBC), bactericidal effect [5]: bactericidal effect | MIC50, growth inhibition of bacteria in broth [6]: low MIC50 | MIC50, growth inhibition of bacteria in broth [7]: lowest MIC50 | MIC50, growth inhibition of bacteria in broth [8]: low MIC50 | MIC50, growth inhibition of bacteria in broth [9]: low MIC50 | agar zone of inhibition, inhibiting bacterial growth [10]: effective | agar zone of inhibition, inhibiting bacterial growth [11]: effective | agar zone of inhibition, inhibiting bacterial growth [12]: effective | Myofibroblast transition (MFT), aSMA/cell, % change relative to control ([13]; 100 ng/ml peptide): −0.2592% | Myofibroblast transition (MFT), aSMA/cell, % change relative to control ([13]; 1000 ng/ml peptide): −0.3087% | MFT, Representative value from experiments (% change relative to control) [13]: −0.3087 p = (0.039) %

QRLLEAQAAT [Peptide P2]
skin redness (erythema), a* value (skin post-dermabrasion): significantly improved erythema; also recorded: improve skin redness | skin smoothness (Visioscan) (skin after dermabrasion [14]): visible; also recorded: most promising skin smoothness results | TEWL, skin barrier restoration (skin after dermabrasion [15]): most promising TEWL assay results; also recorded: most promising results in skin barrier restoration

SKPAKAPE [Peptide P3]
skin redness (erythema), a* value (skin post-dermabrasion): significantly improved erythema; also recorded: improve skin redness | skin smoothness (Visioscan) (skin after dermabrasion [14]): visible; also recorded: most promising skin smoothness results | TEWL, skin barrier restoration (skin after dermabrasion [15]): most promising TEWL assay results; also recorded: most promising results in skin barrier restoration | Myofibroblast transition (MFT), aSMA/cell, % change relative to control ([13]; 1000 ng/ml peptide): −0.4914% | MFT, Representative value from experiments (% change relative to control) [13]: −0.4914 p = (0.006) % | aSMA decrease relative to the control (fluorescence, FIG. 3) ([13]; negative control of no peptide): 49%

SLSRTLWAWLPRPCKSN [MBdol20]
MIC50 and MIC90, inhibiting bacterial growth in broth ([7]; FIG. 11): most effective | agar zone of inhibition, inhibiting bacterial growth [10]: effective | agar zone of inhibition, inhibiting bacterial growth [16]: effective
